Where “and” joins values, the source holds several entries; their conditions need not be identical. Equal entries are not always repeated. Entries after “also recorded” stand apart in the source; their conditions may differ. Where two headings read alike, the source gives them in different places.
Assays:
[1] = test system: rats receiving infusion of fentanyl; design: species or system Sprague-Dawley rat; details: rat, in vivo
[2] = test system: unanesthetized rats receiving continuous intravenous infusion of fentanyl; design: species or system Sprague Dawley rat; details: rat, in vivo
[3] = test system: unanesthetized rats receiving continuous intravenous infusion of fentanyl; design: species or system Sprague Dawley rat; details: rat, in vivo; remark: listed apart in the source
[4] = test system: rats given bolus injections of fentanyl or morphine; details: rat, in vivo
[5] = test system: unanesthetized rats receiving continuous intravenous infusion of fentanyl; design: species or system Sprague Dawley rat; details: rat, in vivo; remark: listed apart in the source
[6] = test system: unanesthetized rats receiving continuous intravenous infusion of fentanyl; design: species or system Sprague Dawley rat; details: rat, in vivo; remark: listed apart in the source
[7] = test system: freely moving rats injected with morphine; assay: Ventilatory responses to morphine and subsequent injections of L-NACme; format: in vivo, rat
[8] = after morphine 10 mg/kg IV, two injections of L-NACme 500 μmol/kg IV
[9] = before morphine, group later given L-NACme
[10] = morphine 10 mg/kg IV, before L-NACme

With `CC(=O)N[C@@H](CS)C(=O)O` [L-NAC, N-acetyl-L-cysteine] the “Fecal output, number of pellets, total weight (words, FIG. 13C-D)” value [1] was “normalized by L-NAC injections”, the “Urine and fecal parameters (words, FIG. 13)” value [1] was “did not affect parameters in vehicle-infused rats” and the “Actual TFL values” [2] was 11.9 ± 0.1 s and 11.5 ± 0.1 s. The A-a gradient [3] was 17.9 ± 0.7 mmHg, the “Arterial blood pH” value [3] was 7.442 ± 0.008 and the “Beneficial effects on ABG chemistry and A-a gradient (words, FIG. 9)” value [3] was “still evident 30 min after the second injection of L-NAC”. For the same molecule, the pCO2 [3] was 35.7 ± 0.03 mmHg, the pO2 [3] was 92.1 ± 0.07 mmHg and the sO2 [3] was 99.0 ± 0.4%. The A-a gradient ([3]; iv) was 27.6 ± 0.8 mmHg and 23.1 ± 1.3 mmHg and 26.1 ± 1.5 mmHg, the “Arterial blood pH” value ([3]; iv) was 7.162 ± 0.026 and 7.392 ± 0.006 and 7.443 ± 0.013 and the pCO2 ([3]; iv) was 57.3 ± 1.5 mmHg and 36.2 ± 1.1 mmHg and 35.2 ± 0.4 mmHg. The pO2 ([3]; iv) was 58.4 ± 1.9 mmHg and 86.3 ± 1.6 mmHg and 84.5 ± 1.4 mmHg, the sO2 ([3]; iv) was 59.1 ± 1.8% and 93.6 ± 0.9% and 92.4 ± 1.2% and the “Effect of bolus L-NAC on bolus opioid” value [4] was “completely without effect”. For the same molecule, the “Righting reflex, time to get back on all four paws” value [5] was 4.6 ± 1.5 s, the “EEP, actual value” [6] was 45.4 ms and the “EF50, baseline” value [6] was 0.36 ± 0.03 mL/s. The “EIP, actual value” [6] was 7.9 ms, the “Effect on Freq, TV and MV (words, FIG. 1)” value [6] was “immediate and sustained increase in these parameters to levels approaching (Freq and MV) and actually reaching (TV) pre-infusion levels; also recorded: did not further boost Freq whereas it did boost TV and therefore MV” and the “Effect on NEBI (words, FIG. 11)” value [6] was “noticeable decrease in NEBI”. For the same molecule, the “Effect on PEF (words, FIG. 4)” value [6] was “substantial and sustained increases in PEF”, the “Effect on PIF (words, FIG. 4)” value [6] was “sustained partial recover of PIF” and the “Effect on Te (words, FIG. 2)” value [6] was “prevented this increase in Te”. The “Effect on Ti/Te (words, FIG. 2)” value [6] was “sustained elevation in Ti/Te compared to vehicle-injected rats”, the “Effect on expiratory drive (words, FIG. 5)” value [6] was “immediate, substantial and sustained increases in expiratory dive” and the “End Expiratory Pause, baseline” value [6] was 44.3 ± 4.0. The “ExpD TV/Te, actual value” [6] was 5.5 mL/s, the “Expiratory Drive (TV/Te), baseline” value [6] was 5.5 ± 0.3 mL/s and the “Expiratory Time (Te), baseline” value [6] was 0.443 ± 0.022 s. The “Freq, actual value” [6] was 102 breaths/min, the “Frequency of Breathing (Freq), baseline” value [6] was 102 ± 5 breaths/min and the “InspD (TV/Ti), actual value” [6] was 12.4 mL/s. For the same molecule, the “Inspiratory Drive (TV/Ti), baseline” value [6] was 12.4 ± 0.6 mL/s, the “Inspiratory Time (Ti), baseline” value [6] was 0.200 ± 0.010 s and the “Level of NEBI (words, FIG. 11)” value [6] was “not noticeably different from those that received the second injection of vehicle”. The “MV, actual value” [6] was 247 mL/min, the “Minute Ventilation, baseline” value [6] was 247 ± 14 mL/min and the “NEBI, actual value” [6] was 2.6%. The “PEF, actual value” [6] was 11.2, the “PIF/PEF, actual value” [6] was 1.61 and the “PIF/PEF, baseline” value [6] was 1.63 ± 0.11. The “Pause, (Te/RT) − 1, baseline” value [6] was 0.40 ± 0.08, the “Pause, (Te/RT)-1, actual value” [6] was 0.40 and the “Peak Expiratory Flow (PEF), baseline” value [6] was 11.2 ± 0.7 mL/s. The “Peak Inspiratory Flow (PIF), baseline” value [6] was 17.6 ± 1.1 mL/s, the “RT, actual value” [6] was 0.32 s and the “Relaxation Time (RT), baseline” value [6] was 0.32 ± 0.02 s. For the same molecule, the “TV, actual value” [6] was 2.42 mL, the “Te − RT, baseline” value [6] was 0.12 ± 0.02 and the “Te, actual value” [6] was 0.44 s. For the same molecule, the “Te-RT, actual value” [6] was 0.12, the “Ti, actual value” [6] was 0.20 s and the “Ti/Te, actual value” [6] was 0.46. The “Ti/Te, baseline” value [6] was 0.46 ± 0.02, the “Tidal Volume, baseline” value [6] was 2.42 ± 0.05 mL and the “Total (cumulative) change in NEBI (words, FIG. 7)” value [6] was “virtually eliminated NEBI”. For the same molecule, the “Total (cumulative) change in PEF (words, FIG. 7)” value [6] was “pronounced increase in PEF”, the “Total (cumulative) change in expiratory drive (words, FIG. 7)” value [6] was “converted the decrease in expiratory drive (ExpD) to an increase” and the “EF50, total percent change” value ([6]; iv) was “+57.6 ± 11.3%”. For the same molecule, the “EIP, actual value” ([6]; iv) was 20.2 ms and 19.7 ms, the “EIP, arithmetic change” value ([6]; iv) was “+12 msec” and the “End Expiratory Pause, total percent change” value ([6]; iv) was “+9.1 ± 6.3%”. For the same molecule, the “End Inspiratory Pause, total percent change” value ([6]; iv) was “+147.0 ± 12.9%”, the “ExpD TV/Te, actual value” ([6]; iv) was 4.6 mL/s and 6.9 mL/s and 8.1 mL/s and the “Expiratory Drive (TV/Te), total percent change” value ([6]; iv) was −14.6 ± 3.1%. The “Expiratory Time (Te), total percent change” value ([6]; iv) was −10.3 ± 3.5%, the “Freq, actual value” ([6]; iv) was 78 breaths/min and 90 breaths/min and 89 breaths/min and the “Frequency of Breathing (Freq), total percent change” value ([6]; iv) was −21.6 ± 2.4%. For the same molecule, the “InspD (TV/Ti), actual value” ([6]; iv) was 4.8 mL/s and 6.6 mL/s and 7.9 mL/s, the “Inspiratory Drive (TV/Ti), total percent change” value ([6]; iv) was −56.3 ± 2.7% and the “Inspiratory Time (Ti), total percent change” value ([6]; iv) was “+82.5 ± 14.1%”. For the same molecule, the “MV, actual value” ([6]; iv) was 135 mL/min and 210 mL/min and 241 mL/min, the “Minute Ventilation, total percent change” value ([6]; iv) was −39.9 ± 2.7% and the “NEBI, actual value” ([6]; iv) was 2.0% and 1.0% and 1.3%. The “NEBI, arithmetic change” value ([6]; iv) was −0.6% and −1.6% and −1.3%, the “PEF, actual value” ([6]; iv) was 11.2 and 13.8 and 15.3 and the “PIF/PEF, actual value” ([6]; iv) was 0.82 and 0.84 and 0.93. The “PIF/PEF, total percent change” value ([6]; iv) was −42.1 ± 4.7%, the “Pause, (Te/RT) − 1, total percent change” value ([6]; iv) was “+348.6 ± 67.4%” and the “Pause, (Te/RT)-1, actual value” ([6]; iv) was 1.32 and 0.94. The “Peak Expiratory Flow (PEF), total percent change” value ([6]; iv) was −2.2 ± 2.8%, the “Peak Inspiratory Flow (PIF), total percent change” value ([6]; iv) was −44.0 ± 3.7% and the “RT, actual value” ([6]; iv) was 0.17 s and 0.18 s. For the same molecule, the “Relaxation Time (RT), total percent change” value ([6]; iv) was −41.4 ± 4.6%, the “TV, actual value” ([6]; iv) was 1.73 mL and 2.34 mL and 2.71 mL and the “Te − RT, total percent change” value ([6]; iv) was “+129.9 ± 28.2%”. For the same molecule, the “Te, actual value” ([6]; iv) was 0.38 s and 0.34 s, the “Te-RT, actual value” ([6]; iv) was 0.21 and 0.17 and 0.16 and the “Ti, actual value” ([6]; iv) was 0.36 s and 0.35 s. For the same molecule, the “Ti/Te, actual value” ([6]; iv) was 0.96 and 1.06 and 1.05, the “Ti/Te, total percent change” value ([6]; iv) was “+104.4 ± 11.6%” and the “Tidal Volume, total percent change” value ([6]; iv) was −23.5 ± 2.5%.

`CCOC(=O)[C@H](CS)NC(C)=O` [L-NACme, N-acetyl-L-cysteine ethyl ester] was tested, and the “Frequency, Drug - entire 75 min, % change” value [7, 8] was “+11 ± 2 %”, the “Minute Ventilation, Drug - entire 75 min, % change” value [7, 8] was −19 ± 4 % and the “Tidal Volume, Drug - entire 75 min, % change” value [7, 8] was −22 ± 3 %. For the same molecule, the “Frequency, Pre values” [7, 9] was 98 ± 4, the “Minute Ventilation, Pre values” [7, 9] was 259 ± 17 and the “Tidal Volume, Pre values” [7, 9] was 2.61 ± 0.16. The “Frequency, Morphine - first 15 min response (%)” value [7, 10] was −4.9 ± 2.8%, the “Frequency, Morphine - peak (+) response (%)” value [7, 10] was “+42 ± 6 %” and the “Frequency, Morphine peak (−) response (%)” value [7, 10] was −22 ± 4 %. The “Minute Ventilation, Morphine - first 15 min response (%)” value [7, 10] was −35 ± 3 %, the “Minute Ventilation, Morphine - peak (+) response (%)” value [7, 10] was “+20 ± 6 %” and the “Minute Ventilation, Morphine peak (−) response (%)” value [7, 10] was −54 ± 4 %. For the same molecule, the “Tidal Volume, Morphine - first 15 min response (%)” value [7, 10] was −34 ± 3 %, the “Tidal Volume, Morphine - peak (+) response (%)” value [7, 10] was −16 ± 6 % and the “Tidal Volume, Morphine peak (−) response (%)” value [7, 10] was −40 ± 6 %.

— US20260256723A1, “THIOL-BASED COMPOUNDS AND COMPOSITIONS AND USES THEREOF” (CASE WESTERN RESERVE UNIVERSITY, priority 2022, published 2026)
